Reference: patent publication US20120189677A1, “FORMULATIONS” (priority 2011, published 2012)
Read-outs that look alike come from different tables or passages of the source.

What was measured:
[1] = approximate average of manufacturer and literature values; cited from earlier work
[2] = Turbidity of surfactant added to standard maltodextrin/lipid emulsion at room temperature (Example 1); assay type: physicochemical; conditions: surfactant 7% w/w in emulsion of 2% C* Dry MD 01958 maltodextrin and 1% S-75 lipid
[3] = Clarity of surfactant/lipid compositions with or without maltodextrin (Example 2); assay type: physicochemical; conditions: surfactant at % given in row, S-75 lipid, low temperature process; for Clarity with maltodextrin (2%): 2% maltodextrin; for Clarity without maltodextrin: no maltodextrin
[4] = Particle size analysis (FIG. 3); assay type: physicochemical; conditions: Brij35P 7.0% w/w, S-75 1% w/w, maltodextrin 2% w/w; 25:2 dilution
[5] = HLB values of surfactants (manufacturer/literature or equation); assay type: physicochemical; conditions: from HLB=20[1-(S/A)], S 45.5, A 276

Row | Substance | HLB [1] | Turbidity (FNU) [2] | also measured
1 | Nonoxynol-40 | 17.8 | >150 FNU | 
2 | Nonoxynol-9 | 12.9 | 8.87 FNU | 
3 | Octoxynol-5 | 10.4 | >150 FNU | 
4 | Laureth-23 [Brij 35P] |  |  | Clarity with maltodextrin (2%) [3]: 128.1 FNU; Clarity without maltodextrin [3]: 184 FNU; polydispersity [4]: 0.625; principal/dominant particle size [4]: 8.68 nm
5 | Octoxynol-40 | 17.9 | >150 FNU | 
6 | Nonoxynol-10 | 13.6 | 8.29 FNU | 
7 | Octoxynol-30 | 17.1 | >150 FNU | 
8 | Octoxynol-16 |  | 7.55 FNU | 
9 | Polysorbate-20 [Polysorbate 20] |  |  | Clarity with maltodextrin (2%) [3]: 59.5 FNU; Clarity without maltodextrin [3]: 79.5 FNU; HLB [5]: 16.7
10 | Octoxynol-9 |  | 7.75 FNU | 
11 | Octoxynol-12 | 14.5 | 4.32 FNU | 
